A short description of data set [1]: Solubility in D2O by 1H NMR (Me2SO2 internal standard). It counts as physicochemical. The settings on record: 21 °C. How it is done:
Solubility in water. A suspension of the selected Fe compound (3–5 mg) in a D2O solution (0.7 mL) containing Me2SO2 as internal standard^52 (3.36 ⋅ 10^−3 M) was vigorously stirred at 21 °C for 10 h. The resulting saturated solution was filtered over celite, transferred into an NMR tube and analysed by ^1H NMR spectroscopy (delay time=3 s; number of scans=20). For the most soluble compounds (S≥0.05 M), a saturated solution was prepared in a smaller volume of D2O/Me2SO2 (0.2–0.3 mL), then filtered and diluted with pure D2O. The concentration (solubility) was calculated by the relative integral with respect to Me2SO2 (δ/ppm=3.14 (s, 6H)).

Data set [2] relates to human pancreatic PSN‐1 cancer cells. Description: Cellular uptake, iron by GF-AAS. It is filed as cell-based. The conditions noted are these: PSN‐1 cells, 50 μM, 24 h, GF-AAS (μg Fe per 10^6 cells, Figure 4A). How it is done: (§1) In order to correlate the cytotoxic potential to the ability of the newly developed complexes to enter cells, we performed uptake experiments. […] Thus, cells were treated for 24 h with equimolar concentrations (50 μM) of the tested compounds. The cellular iron levels were quantified by means of GF‐AAS analysis, and the results, expressed as μg Fe per 10^6 cells, are shown in Figure 4A. […]
(§2) Figure 4 Intracellular detection of iron and carbon monoxide. A) Cellular uptake in PSN‐1 and HEK293 cells; cells were incubated with 50 μM of complexes for 24 h, and the cellular iron content was detected by GFAAS analysis. B) Intracellular CO levels were determined by using a fluorescent probe (BioTracker Carbon Monoxide Probe 1 Live Cell Dye®, Merck, Germany) after 30 min of treatment of PSN‐1 or HEK293 cells with 20 μM [2C]CF3SO3 and [2D]CF3SO3, or 20 μM CORM‐401 as positive control. ** P<0.01, * P<0.05.
(§3) Cellular uptake. […] Cell monolayers were washed twice with cold PBS, harvested and counted. […] After cooling, each mineralized sample was analysed for iron using a Varian AA Duo graphite furnace atomic absorption spectrometer (Varian) at the wavelength of 248.3 nm. […]

In data set [3] the test system is untransformed HEK293 cells. The data set can be described thus: Cellular uptake, iron by GF-AAS. It is filed as cell-based, human. The conditions noted are these: 50 μM, 24 h, GF-AAS (μg Fe per 10^6 cells, Figure 4A). Here is the method: as §1, §2, §3

From paper PMC8362065, “Easily Available, Amphiphilic Diiron Cyclopentadienyl Complexes Exhibit in Vitro Anticancer Activity in 2D and 3D Human Cancer Cells through Redox Modulation Triggered by CO Release” (Chemistry (Weinheim an Der Bergstrasse, Germany), 2021) come the findings set out here.

“[Fe2Cp2(CO)2(μ‐CO){μ‐CNEt(2‐naphthyl)}]BF4 [[4G]BF4]”: the Solubility entry in data set [1] was “not soluble ^[a]”.
Regarding “[Fe2Cp2(CO)2(μ‐CO){μ‐CNMe(4‐C6H4OMe)}]CF3SO3 [[2D]CF3SO3]”, the “Cellular iron accumulation (uptake)” value is given as “able to induce cellular iron accumulation” in data set [2] and “major iron accumulation in untransformed cells with respect to pancreatic cancer cells” in data set [3].
